In patent US20120196342A1, “Industrial Applications of A Novel Aldo/Keto Reductase Of Zymomonas Mobilis” (priority 2011, published 2012):
Like-named read-outs stand apart in the source and are kept apart here.

Legend:
recombinant ZMO0976 = biological target: T1, recombinant ZMO0976 (Zymomonas mobilis, UniProt Q5NNW0); test: Substrate and cofactor profile and Michaelis-Menten kinetics of recombinant ZMO0976; format: biochemical, Z. mobilis
T1 sequence (Q5NNW0 1-340): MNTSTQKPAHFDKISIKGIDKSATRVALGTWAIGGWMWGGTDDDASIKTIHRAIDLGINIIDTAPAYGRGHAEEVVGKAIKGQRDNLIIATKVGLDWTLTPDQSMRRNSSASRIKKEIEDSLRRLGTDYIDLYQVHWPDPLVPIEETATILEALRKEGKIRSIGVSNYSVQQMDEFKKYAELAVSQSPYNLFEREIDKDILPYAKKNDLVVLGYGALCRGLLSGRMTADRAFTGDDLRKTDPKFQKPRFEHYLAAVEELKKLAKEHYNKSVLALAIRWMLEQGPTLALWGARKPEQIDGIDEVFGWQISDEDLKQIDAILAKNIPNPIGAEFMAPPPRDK
Protocol: (§1) E. coli cells were prepared for enzymatic assays using the procedure described in, for example, Akinterinwa, and Cirino, “Heterologous expression of D-xylulokinase from Pichia stipitis enables high levels of xylitol production by engineered Escherichia coli growing on xylose,” Metabolic Engineering 11(1): pp. 48-55. Briefly, cells were harvested by centrifugation at 5,000 g at 4° C. for 30 min. Cells were washed once with extraction buffer [10 mM Tris-HCl pH 7.5, 5 mM MgCl2, 1 mM dithothreitol (DTT) and 1 mM phenylmethylsulfonyl fluoride (PMSF) (Sigma-Aldrich, St. Louis, Mo.)]. Washed cell pellets were stored at −20° C. until use. Cell pellets were resuspended to an OD of 50 in equilibration buffer (50 mM Na2HPO4, 300 mM NaCl and 10 mM imidazole at pH 8 (Sigma-Aldrich, St. Louis, Mo.)) supplemented with 1 mM DTT and 1 mM PMSF, and sonicated (8 cycles of 10 s with 30 s cooling period). Cell debris was discarded after centrifugation at 16,000 g for 20 min at 4° C. Supernatant was used as cell-free extract (CFE) for enzymatic assays. Bradford Assay was used for estimation of protein concentration in the extract. His-tagged protein in the cell-free extract was purified at 4° C. using HIS-Select® HF Nickel Affinity Gel (Sigma-Aldrich, St. Louis, Mo.), which employs immobilized metal-ion affinity chromatography (IMAC). Manufacturer's protocol for large scale purification was followed. Briefly, 10 ml of cell-free extract was added to 1 ml of affinity gel in equilibration buffer. After overnight incubation, the gel was washed five times with equilibration buffer. The bound his-tagged protein was then eluted using 2 ml of elution buffer (50 mM Na2HPO4, 300 mM NaCl and 250 mM imidazole at pH 8). Imidazole was removed by overnight dialysis at 4° C. using extraction buffer as the dialysis solution.
(§2) Cell-free extract for Z. mobilis was prepared as above except that extraction buffer was used for sonication and after which, cell debris were spun down at higher centrifugal force (53,300 g). All enzymatic assay reactions were carried out in a final volume of 200 μl on a microplate. NAD(P)H (Sigma-Aldrich, St. Louis, Mo.) absorbance was measured at 340 nm using Spectramax M5 Plus spectrophotometer (Molecular devices, Sunnyvale, Calif.). Xylose reductase was assayed in McIlvaine buffer at pH 7.2 (prepared by adding 16.5 ml of 0.2 M Na2HPO4 to 3.5 ml of 0.1 M citric acid (Sigma-Aldrich, St. Louis, Mo.)) containing 0.35 mM NADPH or NADH (as indicated) and an appropriate volume of sample (cell-free extract or purified protein) according to Viikari, L. and M. Korhola (1986), “Fructose metabolism in Zymomonas mobilis,” Applied Microbiology and Biotechnology 24(6): 471-476.
(§3) Xylose concentration in the assay mixture is indicated in the text. For measuring the catalytic activity of xylose reductase towards other substrates, similar assay conditions were used. Km and Vmax were determined by varying the substrate concentrations in the assay mixture and fitting the data to Lineweaver-Burk equation: 1/v=(Km/Vmax) […]+1/Vmax. Xylitol concentration was determined enzymatically. The reaction was carried out with a total volume of 200 μl in 42 mM Tris-HCl buffer at pH 8.5, 5 mM NAD, 10 mM MgSO4 (Sigma-Aldrich, St. Louis, Mo.), 4 U/ml sorbitol dehydrogenase (Roche Diagnostics, Indianapolis, Ind.) and 10 μl of sample. Xylitol concentration was estimated based on the amount of NADH produced by xylitol containing samples compared to that produced by xylitol standards. SDS-PAGE and Coommassie blue staining were used to confirm the expression of ZMO0976 and mZMO0976 proteins. 15 μg of cell-free extract protein and 1 μg of purified protein were loaded on a 12% Tris-HCl gel (Bio-Rad, Hercules, Calif.). Cell growth was determined by measuring optical density (OD) at 600 nm using spectrophotometer (Beckman Coulter DU 530, Brea, Calif.).

Z. mobilis = conditions: cited from earlier work
[1] = NADPH-dependent xylose reductase (XR) activity of recombinant ZMO0976/mZMO0976, E. coli UT5600 cell-free extract and purified protein; format: biochemical; conditions: for XR activities of the purified proteins: His-tag purified protein, NADPH; for Xylose reductase activity: NADPH as cofactor, purified protein or cell-free extract (CFE) as named in label
Protocol: as §1, §2
as §3, with “Xylitol concentration was estimated based on the amount of NADH produced by xylitol containing samples compared to that produced by xylitol standards. SDS-PAGE and Coommassie blue staining were used to confirm the expression of ZMO0976 and mZMO0976 proteins. 15 μg of cell-free extract protein and 1 μg of purified protein were loaded on a 12% Tris-HCl gel (Bio-Rad, Hercules, Calif.).” left out

[2] = Reductase activity of purified ZMO0976/mZMO0976 towards acetaldehyde; format: biochemical; conditions: for Specific XR activity, Acetaldehyde (520 mM): purified protein, no unit in table, in mU/mg protein
Protocol: (§4) E. coli cells were prepared for enzymatic assays using the procedure described in, for example, Akinterinwa, and Cirino, “Heterologous expression of D-xylulokinase from Pichia stipitis enables high levels of xylitol production by engineered Escherichia coli growing on xylose,” Metabolic Engineering 11(1): pp. 48-55. Briefly, cells were harvested by centrifugation at 5,000 g at 4° C. for 30 min. Cells were washed once with extraction buffer [10 mM Tris-HCl pH 7.5, 5 mM MgCl2, 1 mM dithothreitol (DTT) and 1 mM phenylmethylsulfonyl fluoride (PMSF) (Sigma-Aldrich, St. Louis, Mo.)]. Washed cell pellets were stored at −20° C. until use. Cell pellets were resuspended to an OD of 50 in equilibration buffer (50 mM Na2HPO4, 300 mM NaCl and 10 mM imidazole at pH 8 (Sigma-Aldrich, St. Louis, Mo.)) supplemented with 1 mM DTT and 1 mM PMSF, and sonicated (8 cycles of 10 s with 30 s cooling period). Cell debris was discarded after centrifugation at 16,000 g for 20 min at 4° C. Supernatant was used as cell-free extract (CFE) for enzymatic assays. Bradford Assay was used for estimation of protein concentration in the extract. His-tagged protein in the cell-free extract was purified at 4° C. using HIS-Select® HF Nickel Affinity Gel (Sigma-Aldrich, St. Louis, Mo.), which employs immobilized metal-ion affinity chromatography (IMAC). […]
(§5) Cell-free extract for Z. mobilis was prepared as above except that extraction buffer was used for sonication and after which, cell debris were spun down at higher centrifugal force (53,300 g). […] NAD(P)H (Sigma-Aldrich, St. Louis, Mo.) absorbance was measured at 340 nm using Spectramax M5 Plus spectrophotometer (Molecular devices, Sunnyvale, Calif.). […]
(§6) Xylose concentration in the assay mixture is indicated in the text. […] Km and Vmax were determined by varying the substrate concentrations in the assay mixture and fitting the data to Lineweaver-Burk equation: 1/v=(Km/Vmax) […]+1/Vmax. Xylitol concentration was determined enzymatically. […] Cell growth was determined by measuring optical density (OD) at 600 nm using spectrophotometer (Beckman Coulter DU 530, Brea, Calif.).

[3] = Reductase activity of purified ZMO0976/mZMO0976 towards furfural; format: biochemical; conditions: for Specific XR activity, Furfural (10 mM): purified protein, no unit in table, in mU/mg protein
Protocol: as §4, §5, §6

[4] = Reductase activity of purified ZMO0976/mZMO0976 towards benzaldehyde; format: biochemical; conditions: for Specific XR activity, Benzaldehyde (2 mM): purified protein, no unit in table, in mU/mg protein
Protocol: as §4, §5, §6

[5] = substrate 260 mM; NADPH cofactor; benzaldehyde = 1
[6] = 0.35 mM NADPH; Lineweaver-Burk fit

## CC=O [Acetaldehyde]
Recombinant ZMO0976; NADPH as cofactor
  Activity of ZMO0976 towards the substrate (in words): showed activity
Recombinant ZMO0976; substrate 260 mM; 0.35 mM of either cofactor
  Fold reduction in ZMO0976 activity with NADH as cofactor compared to NADPH: 53
Recombinant ZMO0976; [5]
  Relative activity: 0.62

## O=Cc1ccccc1 [Benzaldehyde]
Recombinant ZMO0976
  Affinity of ZMO0976 compared with xylose (in words): one to two orders of magnitude higher
  Km, fold lower than xylose: about 150 fold
Recombinant ZMO0976; [6]
  Apparent Vmax: 7200 ± 200 mU/mg protein
Recombinant ZMO0976; 0.35 mM NADPH; Lineweaver-Burk fit; read-out: Apparent Km
  Km: 1770 µM
Recombinant ZMO0976; NADPH as cofactor
  Activity of ZMO0976 towards the substrate (in words): showed activity
Recombinant ZMO0976; substrate 2 mM; NADPH cofactor; benzaldehyde = 1
  Relative activity: 1

## O=C(CO)[C@@H](O)[C@H](O)[C@H](O)CO [Fructose]
Recombinant ZMO0976; NADPH as cofactor
  Activity of ZMO0976 towards the substrate (in words): negligible activity
Recombinant ZMO0976; [5]
  Relative activity: 0

## O=Cc1ccco1 [Furfural]
Z. mobilis
  Concentration at which growth is completely inhibited: 52 mM
  Concentration that reduces the growth rate of Z. mobilis by 25%: 7.3 mM
Recombinant ZMO0976
  Affinity of ZMO0976 compared with xylose (in words): one to two orders of magnitude higher
Recombinant ZMO0976; [6]
  Apparent Vmax: 5000 ± 1300 mU/mg protein
Recombinant ZMO0976; NADPH as cofactor
  Activity of ZMO0976 towards the substrate (in words): showed activity
Recombinant ZMO0976; read-out: Apparent Km; 0.35 mM NADPH; Lineweaver-Burk fit
  Km: 4150 µM
Recombinant ZMO0976; substrate 5.2 mM; NADPH cofactor; benzaldehyde = 1
  Relative activity: 0.81
Recombinant ZMO0976; substrate 10 mM; 0.35 mM of either cofactor
  Fold reduction in ZMO0976 activity with NADH as cofactor compared to NADPH: 10

## O=Cc1ccc(CO)o1 [HMF, 5-hydroxymethylfurfural]
Z. mobilis
  Concentration at which growth is completely inhibited: 63 mM
  Concentration that reduces the growth rate of Z. mobilis by 25%: 9.5 mM
Recombinant ZMO0976; NADPH as cofactor
  Activity of ZMO0976 towards the substrate (in words): showed activity
Recombinant ZMO0976; substrate 10 mM; NADPH cofactor; benzaldehyde = 1
  Relative activity: 0.11

B1: ZMO0976: 341 amino acid aldo/keto reductase of Z. mobilis ZM4, His-tagged, expressed in E. coli UT5600 (protein)
chain: MNTSTQKPAHFDKISIKGIDKSATRVALGTWAIGGWMWGGTDDDASIKTIHRAIDLGINIIDTAPAYGRGHAEEVVGKAIKGQRDNLIIATKVGLDWTLTPDQSMRRNSSASRIKKEIEDSLRRLGTDYIDLYQVHWPDPLVPIEETATILEALRKEGKIRSIGVSNYSVQQMDEFKKYAELAVSQSPYNLFEREIDKDILPYAKKNDLVVLGYGALCRGLLSGRMTADRAFTGDDLRKTDPKFQKPRFEHYLAAVEELKKLAKEHYNKSVLALAIRWMLEQGPTLALWGARKPEQIDGIDEVFGWQISDEDLKQIDAILAKNIPNPIGAEFMAPPPRDK
modifications: His tag; sequence of aldo/keto reductase ZMO0976 (see Fig. 4A)
notes: 341 amino acid aldo/keto reductase of Z. mobilis ZM4, His-tagged, expressed in E. coli UT5600
[1]
  XR activities of the purified proteins: 3400 mU/mg
[1]; listed as Purified recombinant ZMO0976
  Xylose reductase activity: 3400 ± 200 mU/mg protein
[1]; listed as ZM00976
  Xylose reductase activity: 3400±200 mU/mg protein
[2]
  acetaldehyde reductase activity: 2500±400 mU/mg protein
  Specific XR activity, Acetaldehyde (520 mM): 2500 ± 400
[3]
  furfural reductase activity: 5470±60 mU/mg protein
  Specific XR activity, Furfural (10 mM): 5470 ± 60
[4]
  benzaldehyde reductase activity: 4030±250 mU/mg protein
  Specific XR activity, Benzaldehyde (2 mM): 4030 ± 250

B2: mZMO0976: mutated ZMO0976 from adapted strain A3, single arginine to cysteine mutation at residue 292 (C874T) (protein)
chain: MNTSTQKPAHFDKISIKGIDKSATRVALGTWAIGGWMWGGTDDDASIKTIHRAIDLGINIIDTAPAYGRGHAEEVVGKAIKGQRDNLIIATKVGLDWTLTPDQSMRRNSSASRIKKEIEDSLRRLGTDYIDLYQVHWPDPLVPIEETATILEALRKEGKIRSIGVSNYSVQQMDEFKKYAELAVSQSPYNLFEREIDKDILPYAKKNDLVVLGYGALCRGLLSGRMTADRAFTGDDLRKTDPKFQKPRFEHYLAAVEELKKLAKEHYNKSVLALAIRWMLEQGPTLALWGACKPEQIDGIDEVFGWQISDEDLKQIDAILAKNIPNPIGAEFMAPPPRDK
modifications: His tag; sequence of aldo/keto reductase mZMO0976 (see Fig. 4B)
[1]
  XR activities of the purified proteins: 140 mU/mg
  Xylose reductase activity: 140 ± 50 mU/mg protein
[2]
  Specific XR activity, Acetaldehyde (520 mM): 170 ± 30
[3]
  Specific XR activity, Furfural (10 mM): 180 ± 30
[4]
  Specific XR activity, Benzaldehyde (2 mM): 40 ± 10
